# Experimental data as given in PubChem BioAssay AID651973 (The Scripps Research Institute Molecular Screening Center, 2013).
# Calls of active or inactive are those of the source. How the calls were made is not given here.
# Test system: Cell-based VP16 transactivation luciferase reporter, luminescence
# Assay: compounds lowering VP16-driven luciferase output – cell-based, luminescence, counter-screen for LRH-1 inverse agonist project, dose response (AID 651973)
row,SMILES,IC50
1,Cc1onc(-c2ccccc2Cl)c1C(=O)O/N=C(\N)c1ccc([N+](=O)[O-])o1,> 35.9 µM (inactive)
2,C/C(=N\Nc1cc(C(F)(F)F)ccc1Cl)c1ccncc1,> 35.9 µM (inactive)
3,CC1SC(C)C(=O)N(CC(=O)Nc2ccc3c(c2)OCO3)C1=O (stereo not drawn),> 35.9 µM (inactive)
4,O=C(Nc1ccc(Cc2ccncc2)cc1)c1ccc([N+](=O)[O-])o1,> 35.9 µM (inactive)
5,Cc1cccc(NC(=O)COC(=O)Cc2cccs2)c1C,> 35.9 µM (inactive)
6,CCCN(CC(=O)Nc1ccccc1C)CC(=O)Nc1ccc(Br)cc1F,> 35.9 µM (inactive)
7,Cc1no[n+]([O-])c1COc1ccc(/C=C2\NC(=S)NC2=O)cc1,> 35.9 µM (inactive)
8,COc1cc(OC)cc(C(=O)N[C@H](C(=O)OCC(=O)Nc2ccc3c(c2)OCO3)C(C)C)c1,> 35.9 µM (inactive)
9,O=c1[nH]c(Nc2ccc3c(c2)OCCO3)nnc1Cc1ccccc1,> 35.9 µM (inactive)
10,CC(=O)Nc1ccc(NC(=O)CSc2ccc(-c3ccc(-n4ccnc4)cc3)nn2)cc1,> 35.9 µM (inactive)
11,N#CCSc1ccccc1NC(=O)CN1C(=O)C2CC=CCC2C1=O (stereo not drawn),> 35.9 µM (inactive)
12,CC(=O)c1ccc(OC(C)C(=O)OCC(=O)NCCc2ccccc2)cc1 (stereo not drawn),> 35.9 µM (inactive)
13,COC(=O)c1ccc(NC(=O)CSc2nn3c(=O)c(C)nnc3s2)cc1,> 35.9 µM (inactive)
14,COc1ccc(NC(=O)CS(=O)(=O)c2ccc(C)cc2)c(OC)c1,> 35.9 µM (inactive)
15,O=C(COC(=O)c1ccc[n+]([O-])c1)Nc1ccc([N+](=O)[O-])cc1Cl,> 35.9 µM (inactive)
16,NC(=O)C1CCN(C(=O)COc2ccc3c4c(c(=O)oc3c2)CCCC4)CC1,> 35.9 µM (inactive)
17,CCOc1ccc(NC(=O)COC(=O)c2ccc3c(c2)OCCO3)cc1,> 35.9 µM (inactive)
18,CN1CCN(c2ccc(S(=O)(=O)N3CCCCC3)cc2NC(=O)COc2ccc([N+](=O)[O-])cc2)CC1,> 35.9 µM (inactive)
19,CC(=O)Nc1cc(-c2ccc(F)cc2)cn2c(-c3ccc(S(C)(=O)=O)cc3)cnc12,> 35.9 µM (inactive)
20,CCCN(CC(=O)Nc1ccc(C(N)=O)cc1)CC(=O)Nc1ccccc1C,> 35.9 µM (inactive)
21,Cc1cc(Br)ccc1NC(=O)CSc1nnc(CN2CCOCC2)n1C,> 35.9 µM (inactive)
22,O=C(CSc1nc(=O)n2cc(Cl)ccc2n1)Nc1ccc2c(c1)OCCO2,> 35.9 µM (inactive)
23,CCc1cc(=O)oc2c(C)c(OCC(=O)NCCN3CCOCC3)ccc12,> 35.9 µM (inactive)
24,COc1ccc(S(=O)(=O)Nc2ccc3c(c2)n(C)c(=O)n3C)cc1F,> 35.9 µM (inactive)

row,SMILES,IC50
1,Cc1ccccc1Nc1nc(-c2cccnc2)nc2ccccc12,34.6 µM (inactive)
2,CCn1cc(Br)c(C(=O)Nc2ccccc2C(=O)OC)n1,> 35.9 µM (inactive)
3,Cc1ccccc1OCC(=O)N/N=C/c1ccc([N+](=O)[O-])o1,29.8 µM (inactive)
4,CC(=O)Nc1ccc(NC(=O)CSc2nnc(NC(=O)C3CC3)s2)cc1,> 35.9 µM (inactive)
5,O=C(NCc1ccco1)c1nn(-c2ccccc2)c(=O)c2ccccc12,> 35.9 µM (inactive)
6,COc1cc(NC(=O)Cn2ccsc2=N)c(C)cc1[N+](=O)[O-],> 35.9 µM (inactive)
7,CC(C)CC1(C)NC(=O)N(CC(=O)Nc2ccc3c(c2)OCCO3)C1=O (stereo not drawn),> 35.9 µM (inactive)
8,CCOc1cc(/C=N/n2nnnc2N)ccc1OCc1c(C)no[n+]1[O-],> 35.9 µM (inactive)
9,COc1ccc(CC(NC(C)=O)C(=O)NC2CCN(c3nnnn3-c3ccccc3)CC2)cc1 (stereo not drawn),> 35.9 µM (inactive)
10,CC1=CC(O)C(O)C2(C)C1CC1OC(=O)CC3C(C)C(O)C(=O)C2C13CO (stereo not drawn),> 35.9 µM (inactive)
11,O=C(CSc1nncc(=O)[nH]1)Nc1cccc([N+](=O)[O-])c1,34.4 µM (inactive)
12,CC1(C(=O)NCc2ccc3c(c2)OCO3)CCN1C(=O)Cc1ccc(Cl)cc1Cl (stereo not drawn),> 35.9 µM (inactive)
13,CCCc1cc(=O)oc2cc(OCC(=O)NCCc3ccc(S(N)(=O)=O)cc3)ccc12,> 35.9 µM (inactive)
14,COC(=O)c1ccc(CNC(=O)COC(=O)c2cc(Cl)nc(Cl)c2)cc1,> 35.9 µM (inactive)
15,CC1CCC2(CC1)NC(=O)N(CC(=O)Nc1ccc3c(c1)OCCCO3)C2=O (stereo not drawn),> 35.9 µM (inactive)
16,O=C(COC(=O)CCN1C(=O)C2CC=CCC2C1=O)NCCc1ccccc1 (stereo not drawn),> 35.9 µM (inactive)
17,O=C(Cc1ccc(S(=O)(=O)N2CCCC2)s1)Nc1cccc([N+](=O)[O-])c1,14.1 µM (inactive)
18,O=C(CCl)NCCN1C(=O)S/C(=C\c2cccnc2)C1=O,26.8 µM (inactive)
19,CN(C)S(=O)(=O)c1cccc(C(=O)OCC(=O)Nc2ccc3c(c2)OCCO3)c1,> 35.9 µM (inactive)
20,O=C(COC(=O)CCN1C(=O)C2CC=CCC2C1=O)NCCc1ccc(F)cc1 (stereo not drawn),> 35.9 µM (inactive)
21,CC(=O)Nc1ccc(NC(=O)COC(=O)Cc2c[nH]c3ccccc23)cc1,> 35.9 µM (inactive)
22,COc1ccc(OC)c(NC(=O)c2ccccc2NC(=O)c2ccco2)c1,> 35.9 µM (inactive)
23,Cc1cccc(NC(=O)COC(=O)CN2C(=O)c3ccccc3C2=O)c1C,> 35.9 µM (inactive)
24,COc1ccc(OCCNC(=O)C2(C)CCN2Cc2ccc3ccccc3c2)cc1 (stereo not drawn),23.8 µM (inactive)

row,SMILES,IC50
1,COc1ccccc1NC(=O)CN1CCN(CC(=O)Nc2ccc(S(N)(=O)=O)cc2)CC1,20.4 µM (inactive)
2,CCCN(CC(=O)Nc1ccc(C(C)=O)cc1)CC(=O)Nc1ccccc1C,> 35.9 µM (inactive)
3,O=C(Nc1ccc(S(=O)(=O)N2CCOCC2)cc1)c1cccc([N+](=O)[O-])c1,> 35.9 µM (inactive)
4,O=C(Nc1ccccc1)c1oc2ccccc2c1NC(=O)C1CC1,> 35.9 µM (inactive)
5,Cc1ccc2cccc(OCC(=O)NCCC3=CCCCC3)c2n1,> 35.8 µM (inactive)
6,CCOCC(=O)Nc1ccc(S(=O)(=O)NCCc2ccccc2)cc1,> 35.9 µM (inactive)
7,COC(=O)c1ccc(COc2ccc(/C=N/NC(N)=S)cc2)o1,> 35.9 µM (inactive)
8,CCCc1cc(=O)oc2cc(C)cc(OCC(=O)Nc3ccccn3)c12,> 35.9 µM (inactive)
9,COC(=O)c1ccc(NC(=O)CSc2nncn2-c2cccnc2)cc1,> 35.9 µM (inactive)
10,Cc1ccc(NC(=O)CSc2sc3c(O)cc(=O)[nH]c3c2C#N)c(F)c1,> 35.9 µM (inactive)
11,Cc1ccc(NC(=O)CSc2nnc([C@@H]3CCCN3C(=O)OC(C)(C)C)o2)c(C)c1,> 35.9 µM (inactive)
12,COc1ccc(CCNC(=O)COC(=O)C23CC4CC(CC(C4)C2)C3)cc1,> 35.9 µM (inactive)
13,COc1ccc(-n2c(/C=C(\C)O)nc(=O)c3c(C)cc(C)nc32)cc1,> 35.9 µM (inactive)
14,CCCc1cc(=O)oc2c(C)c(OCC(=O)NC3CC(C)(C)NC(C)(C)C3)ccc12,> 35.9 µM (inactive)
15,COc1ccc(NC(=O)CSc2nc(N)c(-c3ccccc3)c(=O)[nH]2)cc1,> 35.9 µM (inactive)
16,COc1ccc(CCNC(=O)COC(=O)Cc2ccccc2[N+](=O)[O-])cc1,> 35.9 µM (inactive)
17,Cc1cc(OCC(=O)NCc2cccnc2)c2c(C)c(C)c(=O)oc2c1,> 35.9 µM (inactive)
18,Cc1cc(C)c2c(=O)[nH]c(SCC(=O)Nc3ccc(Br)cc3)nc2n1,> 35.9 µM (inactive)
19,CCOc1ccc(NC(=O)CSc2nnc(C(C)C)n2CC)cc1,> 35.9 µM (inactive)
20,Cc1nn(CC(=O)Nc2ccc3c(c2)OCCO3)c(C)c1[N+](=O)[O-],> 35.9 µM (inactive)
21,Cc1ccc(C)c(NC(=O)CSc2nnc(-c3n[nH]c4ccccc34)o2)c1,> 35.9 µM (inactive)
22,O=[N+]([O-])c1cc(F)c(N2CCCCCC2)cc1N1CCNCC1,19.3 µM (inactive)
23,Cc1onc(NC(=O)c2ccc([N+](=O)[O-])o2)c1Br,> 35.9 µM (inactive)
24,CC(=O)Nc1cc(-c2cccc(F)c2)cn2c(-c3ccc(S(C)(=O)=O)cc3)cnc12,18.7 µM (inactive)

row,SMILES,IC50
1,O=C(COc1ccc2c3c(c(=O)oc2c1)CCCC3)NCc1ccccn1,> 35.9 µM (inactive)
2,CS(=O)(=O)c1ccc(-c2cc(NC=O)c3ncc(-c4ccc(F)cc4)n3c2)cc1,14.6 µM (inactive)
3,CC(=O)Nc1ccc(NC(=O)CSc2nnnn2C2CCCCC2)cc1,> 35.9 µM (inactive)
4,CCCOc1ccc(NC(=O)CC2C(=O)N(C)C(=S)N2Cc2ccc3c(c2)OCO3)cc1 (stereo not drawn),8.7 µM
5,Cc1cc(NC(=O)c2ccc([N+](=O)[O-])o2)ccc1NC(=O)c1ccco1,> 35.9 µM (inactive)
6,O=C1CCCN2N=C(SCC(=O)Nc3ccc(Br)cc3)SC2=N1,> 35.9 µM (inactive)
7,O=C(NCC1CCCO1)c1ccc(NC(=O)c2cccc([N+](=O)[O-])c2)cc1 (stereo not drawn),> 35.9 µM (inactive)
8,N#Cc1cc([N+](=O)[O-])ccc1NC(=O)COC(=O)C1CCC(=O)N1 (stereo not drawn),> 35.9 µM (inactive)
9,CCc1ccccc1NC(=O)CSc1nnc([C@@H]2CCCN2C(=O)OC(C)(C)C)o1,> 35.9 µM (inactive)
10,O=C(Nc1nc2c(Cl)cccc2s1)c1ccc([N+](=O)[O-])o1,> 35.9 µM (inactive)
11,Cc1cc(OCC(=O)Nc2nccs2)c2c(C)cc(=O)oc2c1,> 35.9 µM (inactive)
12,COc1ccc(CCNC(=O)COC(=O)C23CC4CC(CC(Br)(C4)C2)C3)cc1,> 35.9 µM (inactive)
13,Nc1ccc(C(=O)NN2C(=O)[C@H](Cl)C2c2ccc(Cl)cc2)cc1 (stereo partly drawn),9.87 µM
14,COc1cc(/C=N/NC(N)=S)ccc1OCC(=O)Nc1ccc(C)cc1,> 35.9 µM (inactive)
15,NS(=O)(=O)c1ccc(O)c(NC(=O)c2ccc([N+](=O)[O-])o2)c1,> 35.9 µM (inactive)
16,CCCc1nnc(SCC(=O)Nc2ccc(C(=O)OCC)cc2)o1,> 35.9 µM (inactive)
17,Cc1cc(Br)ccc1NC(=O)CN1C(=O)C2CC=CCC2C1=O (stereo not drawn),> 35.9 µM (inactive)
18,COC(=O)c1ccc(NC(=O)CN2CCN(c3ccc(Cl)cc3)CC2)cc1,> 35.9 µM (inactive)
19,COc1ccc(C2(C)NC(=O)N(CC(=O)NCCC3=CCCCC3)C2=O)cc1OC (stereo not drawn),> 35.9 µM (inactive)
20,CCn1c(SCC(=O)Nc2ccc(Cl)cc2)nnc1C1CC1,> 35.9 µM (inactive)
21,Cc1no[n+]([O-])c1COc1ccc(/C=N/n2nnnc2N)cc1,> 35.9 µM (inactive)
